Numbered stars: 1 amine (or outer) side, 2 acyl side, 3 side chain; on linkers, the order of the positions; unused ones are H or OH. Square brackets hold non-standard residues; d marks the D form. Peptide text beside a SMILES is read from it. Haic = O=C1[C@@H](N[*:1])CCc2cccc3c2N1[C@H](C(=O)[*:2])C3; dTrp(2-Me) = Cc1[nH]c2ccccc2c1C[C@@H](N)C(=O)O
Tests used:
His-tagged hDHFR = target: T1, His-tagged hDHFR (Homo sapiens, UniProt P00374); experiment: SPR blank assay on a hDHFR-His-Tag functionalized sensor; assay type: binding; settings: same peptide concentrations
T1 construct: made in house
T1 sequence (P00374 1-187): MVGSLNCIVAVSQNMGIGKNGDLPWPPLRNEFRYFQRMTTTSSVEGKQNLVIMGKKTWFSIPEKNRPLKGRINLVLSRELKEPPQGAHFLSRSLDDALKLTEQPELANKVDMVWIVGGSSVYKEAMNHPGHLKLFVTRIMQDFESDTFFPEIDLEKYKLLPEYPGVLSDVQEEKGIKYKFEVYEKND
Method: (§1) The SPR sensors for screening small peptidic ligand binding to a recombinant soluble His-tagged CD36 functionalized surfaces were prepared as described above. Five ligands were investigated: EP80317, CP-2B(i), CP-3(iv), CP-2A(v) and DBG-178(27) with concentrations ranging from 30 μM to 100 nM except for EP80317. The latter was used for optimizing the system with solutions ranging from 1 mM to 100 nM. EP80317 (HAIC-2MeDTrp-DLys-Trp-D-Phe-Lys-NH2) is a positive control of known activity, CP-2B(i) (His-DTrp-AzaLeu-Trp-DPhe-Ala-NH2) is a negative control, and CP-3(iv) (Ala-DTrp-Ala-AzaPhe-DPhe-Lys-NH2), CP-2A(v) (His-DTrp-AzaGly-Trp-DPhe-Lys-NH2) and DBG-178(27) (His-DTrp-Ala-azaTyr-DPhe-Lys-NH2) are novel CD36 ligands (see PCT publication No. WO 08/154,738). Another negative control was accomplished by exposing the His-tagged hDHFR functionalized surface to the same concentration of CD36 peptidic ligand. Two different approaches were used to remove the His-tagged CD36-Cu complex from the SPR sensors: concentrated histidine solution or saturated EDTA solution.
This is the case of the CD36-ligand system investigated herein, where the ligands are small peptides of about 800 to 1000 g/mol. Indeed, according to the aforementioned principle, the binding of the small peptides to the CD36 receptor should be close to the limit of detection, thus providing unreliable affinity measurements. […]

[1] = target: recombinant soluble His-tagged CD36 (Homo sapiens, UniProt P16671); experiment: SPR screening of peptide ligands on a CD36 functionalized sensor; assay type: binding; settings: increasing ligand concentrations
recombinant soluble His-tagged CD36, sequence (P16671 30-439 limits assumed): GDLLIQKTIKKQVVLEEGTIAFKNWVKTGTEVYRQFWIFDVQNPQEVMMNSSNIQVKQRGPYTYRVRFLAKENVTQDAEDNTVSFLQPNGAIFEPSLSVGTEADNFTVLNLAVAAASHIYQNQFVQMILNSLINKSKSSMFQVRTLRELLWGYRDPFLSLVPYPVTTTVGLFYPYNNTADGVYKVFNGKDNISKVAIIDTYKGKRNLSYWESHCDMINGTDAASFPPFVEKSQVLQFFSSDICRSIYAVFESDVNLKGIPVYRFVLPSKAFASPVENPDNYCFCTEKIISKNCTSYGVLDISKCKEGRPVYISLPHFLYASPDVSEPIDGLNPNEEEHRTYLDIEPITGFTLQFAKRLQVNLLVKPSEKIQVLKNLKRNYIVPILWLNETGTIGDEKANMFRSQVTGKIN
Method: as §1
This is the case of the CD36-ligand system investigated herein, where the ligands are small peptides of about 800 to 1000 g/mol. Indeed, according to the aforementioned principle, the binding of the small peptides to the CD36 receptor should be close to the limit of detection, thus providing unreliable affinity measurements. […] This could be a consequence of a large conformational change of the CD36 receptor upon binding of specific ligands, thus providing the amplification sufficient for SPR signal detection.
The SPR setup was used for investigating the structure-activity relationships of various CD36 peptidic ligands. […] The measured KD's were compared to the EC50 values obtained in the activated src-kinase assay following CD36 receptor activation by the tested peptides. […] For the src-kinase cellular assay, the response sensitivity (EC50) for the tested peptides (in decreasing order) was as follows: EP80317>CP-2A(v)>CP-3(iv)>DBG-178(27)>CP-2B(i). With SPR, the binding affinity to CD36, in decreasing order, was: DBG-178(27)>CP-2A(v)>EP80317>CP-3(iv)>CP-2B(i). […] For CD36-peptidic ligands, a correlation appears between the affinity binding of the small peptides for CD36 as determined by SPR and their efficiency to produce a cellular response in the src kinase assay. Thus, SPR appears as a selective and sensitive method to screen for CD36 ligands.

Change of SPR signal on hDHFR-His-Tag functionalized sensor (His-tagged hDHFR): no significant change of signal
Change of SPR signal on CD36-His-tag-functionalized surface [1]: large shift in the signal
Structure (SMILES): Cc1[nH]c2ccccc2c1C[C@@H](NC(=O)[C@@H]1Cc2cccc3c2N1C(=O)[C@@H](N)CC3)C(=O)N[C@H](CCCCN)C(=O)N[C@@H](Cc1c[nH]c2ccccc12)C(=O)N[C@H](Cc1ccccc1)C(=O)N[C@@H](CCCCN)C(N)=O [EP80317, HAIC-2MeDTrp-DLys-Trp-D-Phe-Lys-NH2, reference compound] (Haic-[dTrp(2-Me)][dK]W[dF]K-NH2; N-terminus assumed)
